Results from patent publication US6610689B2, “HIV protease inhibitors based on amino acid derivatives” (priority 2001, dated 2003).
Read-outs that look alike come from different tables or passages of the source.

Target: T1, HIV protease (Human immunodeficiency virus type 1 group M subtype B, UniProt P04585)
T1 construct: A third viral enzyme known as protease then cleaves the polyproteins
Assay: Enzymatic Assay for Determining the Inhibition Constant (Ki) of Synthetic Compounds Targeting the HIV Protease (fluorometric FRET assay)
Type: biochemical
Excerpt: Enzymatic Assay for Determining the Inhibition Constant (Ki) of Synthetic Compounds Targeting the HIV Protease
This is a fluorometric assay based on the cleavage by protease of a substrate carrying a donor group (EDANS) and an acceptor group (DABCYL) on each side of the cleavage site, interacting together through fluorescence resonance energy transfer (FRET) as described by Matayoshi et al. (Science 247:[…], 1990).
After calculation of Vo and Vi, the inhibition constant (Ki) of the compound is determined using the equation of Henderson: [formula]
where Vo=the enzyme's initial velocity
Vi=the enzyme velocity in the presence of the inhibitory compound,
[I]=inhlibitor concentration, [S]=substrate concentration,
Km=Michaelis-Menten constant and Kiapp=apparent Ki
Graphs are traced and the Ki determined using GraphPad Prism software v. 3.0.

[1] = Table 1, compounds of formula I, read-out: Ki (anti-protease activity)

Molecule: Cc1ccc(S(=O)(=O)N(CC(C)C)[C@H](CO)CCCCNC(=O)CN(Cc2ccccc2)C(=O)c2ccccc2)cc1 [Example 158, (2S) 2-N-Isobutyl-2-N-(4-methylbenzenesulfonyl)-6-N-(N′α-benzoyl-N′α-benzylglycyl)-2,6-diaminohexanol]
- Ki: 95 nM

Molecule: Cc1ccc(S(=O)(=O)N(CC(C)C)[C@@H](CCCCNC(=O)[C@H](Cc2c[nH]c3ccccc23)NS(=O)(=O)c2ccc(N)cc2)C(=O)O)cc1 [Example 12, Nα-Isobutyl-Nα-(4-methylbenzenesulfonyl)-Nε-[N′α-(4-aminobenzenesulfonyl)-L-tryptophanyl]-L-lysine]
- Ki (Anti-protease activity of Ne-amino acid substituted L-lysine derivatives and analogs of formula I, read-out: Ki): 0.311 nM

Molecule: COC(=O)[C@H](CCCCNC(=S)[C@H](Cc1ccccc1)NC(=S)c1ccccc1)N(CC(C)C)S(=O)(=O)c1ccc(C)cc1 [Example 76, Nα-Isobutyl-Nα-(4-methylbenzenesulfonyl)-Nε-(N′α-thiobenzoyl-L-thiophenylalanyl)-L-lysine Methyl Ester]
- Ki: > 300 nM

Molecule: Cc1ccc(S(=O)(=O)N(CC(C)C)[C@@H](CCCCNC(=S)[C@H](Cc2ccccc2)NC(=S)c2ccccc2)C(=O)O)cc1 [Example 77, Nα-Isobutyl-Nα-(4-methylbenzenesulfonyl)-Nε-(N′α-thiobenzoyl-L-thiophenylalanyl)-L-lysine]
- Ki: 212 nM

Molecule: Cc1ccc(S(=O)(=O)N(CC(C)C)[C@@H](CCCCNC(=O)[C@H](CC2CCCCC2)NC(=O)OCC2c3ccccc3-c3ccccc32)C(=O)O)cc1 [Example 37, Nα-Isobutyl-Nα-(4-methylbenzenesulfonyl)-Nε-[N′α-(9-fluorenylmethoxycarbonyl)-L-cyclohexylalanyl]-L-lysine]
- Ki: 28 nM

Molecule: CC(C)CN(CC(=O)NCCCC[C@@H](CO)N(CC(C)C)S(=O)(=O)c1ccc(N)cc1)c1ccccc1 [Example 181, (2S) 2-N-(4-Aminobenzenesulfonyl)-2-N-isobutyl-6-N-(N′α-isobutyl-N′α-phenylglycyl)-2,6-diaminohexanol]
- Ki [1]: 16 nM

Molecule: Cc1ccc(S(=O)(=O)N(CC(C)C)[C@H](CO)CCCCNC(=O)[C@H](Cc2ccccc2)NC(=O)N2CCOCC2)cc1 [Example 120, (2S,2′S) 2-N-Isobutyl-2-N-(4-methylbenzenesulfonyl)-6-N-[N′α-(4-morpholinecarbonyl)-S-phenylalanyl]-2,6-diaminohexanol]
- Ki: 2.4 nM

Molecule: Cc1ccc(S(=O)(=O)N(CC(C)C)[C@H](CO)CCCCNC(=O)[C@@H]2Cc3c([nH]c4ccccc34)CN2C(=O)OC(C)(C)C)cc1 [Example 141, (2S,2′S) 2-N-Isobutyl-2-N-(4-methylbenzenesulfonyl)-6-N-(N′α-tert-butoxycarbonyl-S-1,2,3,4-tetrahydronorharman-3-carbonyl)-2,6-diaminohexanol]
- Ki: 38 nM

Molecule: Cc1ccc(S(=O)(=O)N(CC(C)C)[C@H](CO)CCCCNC(=O)[C@H](Cc2c[nH]c3ccccc23)NC(=O)c2ccccc2)cc1 [Example 191, (2S,2′S) 2-N-Isobutyl-2-N-(4-methylbenzenesulfonyl)-6-N-(N′α-benzoyl-S-tryptophanyl)-2,6-diaminohexanol]
- Ki: 3.8 nM

Molecule: Cc1ccc(S(=O)(=O)N(CC(C)C)[C@@H](CCCCNC(=O)[C@H](Cc2ccccc2)NC(=O)c2ccccc2)C(=O)O)cc1 [Example 50, Nα-Isobutyl-Nα-(4-methylbenzenesulfonyl)-Nε-(N′α-benzoyl-L-phenylalanyl)-L-lysine]
- Ki: 2 nM

Molecule: Cc1ccc(S(=O)(=O)N(CC(C)C)[C@@H](CCCCNC(=O)[C@H](Cc2c[nH]c3ccccc23)NS(=O)(=O)c2ccccc2)C(N)=O)cc1 [Example 189, Nα-Isobutyl-Nα-(4-methylbenzenesulfonyl)-Nε-(N′α-benzenesulfonyl-L-tryptophanyl)-L-lysine Amide]
- Ki: 1.9 nM

Molecule: Cc1ccc(S(=O)(=O)N[C@@H](CO)C(=O)NCCCC[C@@H](C(=O)O)N(CC(C)C)S(=O)(=O)c2ccc(C)cc2)cc1 [Example 32, Nα-Isobutyl-Nα-(4-methylbenzenesulfonyl)-Nε-[N′α-(4-methylbenzenesulfonyl)-L-seryl]-L-lysine]
- Ki: 93 nM

Molecule: Cc1ccc(S(=O)(=O)N(CC(C)C)[C@@H](CCCCNC(=O)[C@@H](N)Cc2ccccc2)C(=O)O)cc1 [Example 79, Nα-Isobutyl-Nα-(4-methylbenzenesulfonyl)-Nε-(L-phenylalanyl)-L-lysine]
- Ki: 1.5 nM

Molecule: Cc1ccc(S(=O)(=O)N(CC(C)C)[C@@H](CCCCNC(=O)[C@H](Cc2cn(Cc3ccccc3)cn2)NC(=O)OC(C)(C)C)C(=O)O)cc1 [Example 85, Nα-Isobutyl-Nα-(4-methylbenzenesulfonyl)-Nε-(N′α-tert-butoxycarbonyl-Nτ-benzyl-L-histidinyl)-L-lysine]
- Ki: 124 nM

Molecule: Cc1ccc(S(=O)(=O)N(CC(C)C)[C@@H](CCCCNC(=O)[C@H](Cc2c[nH]c3ccccc23)NS(=O)(=O)c2ccccc2)C(=O)O)cc1 [Example 4, Nα-Isobutyl-Nα-(4-methylbenzenesulfonyl)-Nε-(N′α-benzenesulfonyl-L-tryptophanyl)-L-lysine]
- Ki: 1 nM

Molecule: COc1ccc(S(=O)(=O)N(CC2CCCC2)[C@H](CO)CCCCNC(=O)[C@H](Cc2c[nH]c3ccccc23)NC(=O)OC(C)(C)C)cc1 [Example 153, (2S,2′S) 2-N-Cyclopentylmethyl-2-N-(4-methoxybenzenesulfonyl)-6-N-(N′α-tert-butoxycarbonyl-S-tryptophanyl)-2,6-diaminohexanol]
- Ki: 24 nM

Molecule: CC(C)CN([C@@H](CCCCNC(=O)[C@H](Cc1ccccc1)NS(=O)(=O)c1ccccc1)C(=O)O)S(=O)(=O)c1ccc(N)cc1 [Example 44, Nα-(4-Aminobenzenesulfonyl)-Nα-isobutyl-Nε-(N′α-benzenesulfonyl-L-phenylalanyl)-L-lysine]
- Ki: 3.6 nM

Molecule: Cc1ccc(S(=O)(=O)N[C@@H](Cc2cccs2)C(=O)NCCCC[C@@H](C(=O)O)N(CC(C)C)S(=O)(=O)c2ccc(C)cc2)cc1 [Example 35, Nα-Isobutyl-Nα-(4-methylbenzenesulfonyl)-Nε-[N′α-(4-methylbenzenesulfonyl)-L-2-thiophenylalanyl]-L-lysine]
- Ki: 21 nM

Molecule: Cc1ccc(S(=O)(=O)N(CC(C)C)[C@@H](CCCCNC(=O)CNc2ccncc2)C(=O)O)cc1 [Example 112, Nα-Isobutyl-Nα-(4-methylbenzenesulfonyl)-Nε-[N′α-(4-pyridyl)glycyl]-L-lysine]
- Ki [1]: > 300 nM

Molecule: Nα-Isobutyl-Nα-(4-methylbenzenesulfonyl)-Nε-(N′α-benzylglycyl)-L-lysine [Example 109]
- Ki [1]: > 300 nM

Molecule: Cc1ccc(S(=O)(=O)N[C@@H](CCCCN)C(=O)NCCCC[C@@H](C(=O)O)N(CC(C)C)S(=O)(=O)c2ccc(C)cc2)cc1 [Example 39, Nα-Isobutyl-Nα-(4-methylbenzenesulfonyl)-Nε-[N′α-(4-methylbenzenesulfonyl)-L-lysyl]-L-lysine]
- Ki: > 300 nM

Molecule: CC(=O)N[C@@H](Cc1c[nH]c2ccccc12)C(=O)NCCCC[C@@H](C(=O)O)N(CC(C)C)S(=O)(=O)c1ccc(C)cc1 [Example 99, Nα-Isobutyl-Nα-(4-methylbenzenesulfonyl)-Nε-(N′α-acetyl-L-tryptophanyl)-L-lysine]
- Ki: 0.438 nM

Molecule: COc1ccc(S(=O)(=O)N(CC2CCCC2)[C@H](CO)CCCCNC(=O)[C@H](Cc2c[nH]c3ccccc23)NC(C)=O)cc1 [Example 173, (2S,2′S) 2-N-Cyclopentylmethyl-2-N-(4-methoxybenzenesulfonyl)-6-N-(N′α-acetyl-S-tryptophanyl)-2,6-diaminohexanol]
- Ki: 11 nM

Molecule: Cc1ccc(S(=O)(=O)N(CC(C)C)[C@H](CO)CCCCNC(=O)[C@H](Cc2c[nH]c3ccccc23)NC(=O)N2CCOCC2)cc1 [Example 171, (2S,2′S) 2-N-Isobutyl-2-N-(4-methylbenzenesulfonyl)-6-N-[N′α-(4-morpholinecarbonyl)-S-tryptophanyl]-2,6-diaminohexanol]
- Ki: 7.9 nM

Molecule: Cc1ccc(S(=O)(=O)N(CC(C)C)[C@@H](CCCCNC(=O)[C@H](Cc2ccccc2)N(C)C(=O)OC(C)(C)C)C(=O)O)cc1 [Example 81, Nα-Isobutyl-Nα-(4-methylbenzenesulfonyl)-Nε-(N′α-tert-butoxycarbonyl-N′α-methyl-L-phenylalanyl)-L-lysine]
- Ki: 3.8 nM

Molecule: CCC[C@H](NS(=O)(=O)c1ccccc1)C(=O)NCCCC[C@@H](C(=O)O)N(CC(C)C)S(=O)(=O)c1ccc(C)cc1 [Example 14, Nα-Isobutyl-Nα-(4-methylbenzenesulfonyl)-Nε-[N′α-(benzenesulfonyl)-L-norvalyl]-L-lysine]
- Ki: 185 nM

Molecule: COC(=O)[C@H](CCCCNC(=O)[C@H](Cc1ccccc1)NS(=O)(=O)c1cccs1)N(CC(C)C)S(=O)(=O)c1ccc(C)cc1 [Example 57, Nα-Isobutyl-Nα-(4-methylbenzenesulfonyl)-Nε-[N′α-(2-thiophenesulfonyl)-L-phenylalanyl]-L-lysine Methyl Ester]
- Ki: > 300 nM

Molecule: Cc1ccc(S(=O)(=O)N(CC(C)C)[C@H](CO)CCCCNC(=O)[C@H](Cc2ccncc2)NC(=O)OC(C)(C)C)cc1 [Example 136, (2S,2′S) 2-N-Isobutyl-2-N-(4-methylbenzenesulfonyl)-6-N-(N′α-tert-butoxycarbonyl-S-4-pyridylalanyl)-2,6-diaminohexanol]
- Ki [1]: 110 nM

Molecule: CCCC[C@H](NS(=O)(=O)c1ccccc1)C(=O)NCCCC[C@@H](C(=O)O)N(CC(C)C)S(=O)(=O)c1ccc(C)cc1 [Example 15, Nα-Isobutyl-Nα-(4-methylbenzenesulfonyl)-Nε-[N′α-(benzenesulfonyl)-L-norleucyl]-L-lysine]
- Ki: 34 nM

Molecule: Cc1ccc(S(=O)(=O)N[C@@H](Cc2ccccc2)C(=S)NCCCC[C@@H](C(=O)O)N(CC(C)C)S(=O)(=O)c2ccc(C)cc2)cc1 [Example 72, Nα-Isobutyl-Nα-(4-methylbenzenesulfonyl)-Nε-[N′α-(4-methylbenzenesulfonyl)-L-thiophenylalanyl]-L-lysine]
- Ki: 33 nM
